In paper PMC7918733, “Biological Profiling of Semisynthetic C19-Functionalized Ferruginol and Sugiol Analogues” (Antibiotics, 2021):

Columns and labels:
L. infantum amastigotes = test: Intracellular amastigote assay (fluorometric test); format: cell-based; settings: Leishmania infantum, read-out: L. infantum IC50 ± SD
[1] = system: L. amazonensis amastigotes; test: Intracellular amastigote assay (fluorometric test); format: cell-based; settings: Leishmania amazonensis, read-out: L. amazonensis IC50 ± SD
P. falciparum 3D7 strain = test: Antiplasmodial DNA stain-based growth assay; format: cell-based; settings: Plasmodium falciparum, 3D7; chloroquine-sensitive strain; 72 h incubation; read-out: P. falciparum 3D7 EC50
Protocol: (§1) Assays were performed by using previously described DNA stain-based assay and methods, including cytotoxicity assays.

P. falciparum K1 strain = test: Antiplasmodial DNA stain-based growth assay; format: cell-based; settings: Plasmodium falciparum, K1; chloroquine-resistant strain; 72 h incubation; read-out: P. falciparum K1 EC50
Protocol: as §1

BJ = test: Cytotoxicity on mammalian cell lines; format: cell-based; settings: Homo sapiens, read-out: BJ EC50
Protocol: as §1

HEK293 = test: Cytotoxicity on mammalian cell lines; format: cell-based; settings: Homo sapiens, HEK293; read-out: HEK293 EC50
Protocol: as §1

HepG2 = test: Cytotoxicity on mammalian cell lines; format: cell-based; settings: Homo sapiens, HepG2; read-out: HepG2 EC50
Protocol: as §1

RAJI = test: Cytotoxicity on mammalian cell lines; format: cell-based; settings: Homo sapiens, read-out: RAJI EC50
Protocol: as §1

A549 (Lung) = test: Antiproliferative SRB assay; format: cell-based, human; settings: Homo sapiens, A549, mean ± SD of at least two experiments
Protocol: (§2) Cells, cultures and the activity test of abietane analogs followed reported methods. The SRB assay was performed as previously described, and the antiproliferative activity was given as GI50 values, which were calculated according to NCI formulas.

SW1573 (Lung) = test: Antiproliferative SRB assay; format: cell-based, human; settings: Homo sapiens, SW1573, mean ± SD of at least two experiments
Protocol: as §2

WiDr (Colon) = test: Antiproliferative SRB assay; format: cell-based, human; settings: Homo sapiens, WiDr, mean ± SD of at least two experiments
Protocol: as §2

HBL-100 (Breast) = test: Antiproliferative SRB assay; format: cell-based; settings: Homo sapiens, mean ± SD of at least two experiments
Protocol: as §2

HeLa (Cervix) = test: Antiproliferative SRB assay; format: cell-based; settings: Homo sapiens, mean ± SD of at least two experiments
Protocol: as §2

T-47D (Breast) = test: Antiproliferative SRB assay; format: cell-based; settings: Homo sapiens, T47D, mean ± SD of at least two experiments
Protocol: as §2

Macrophages J774 = settings: mouse
Protocol: (§3) The compounds were additionally studied in a panel of mammalian cell lines to determine cytotoxicity.
(§4) The parasites, culture procedure and the activity of functionalized abietane analogs on Leishmania promastigotes were performed according to the method previously reported by us [28], while the intracellular amastigote assay was performed on L. amazonensis and L. infantum according to the fluorometric test [29]. The J774 cell culture and the cytotoxicity assay was carried out according to our previously described method [30].

in vitro = settings: mouse, Macrophages J774 CC50
Protocol: as §3, §4

[2] = system: L. infantum promastigotes; test: Antileishmanial in vitro promastigote assay; settings: Leishmania infantum, read-out: L. infantum IC50 ± SD
Protocol: as §3, §4

[3] = system: L. donovani promastigotes; test: Antileishmanial in vitro promastigote assay; settings: Leishmania donovani, read-out: L. donovani IC50 ± SD
Protocol: as §3, §4

[4] = system: L. amazonensis promastigotes; test: Antileishmanial in vitro promastigote assay; settings: Leishmania amazonensis, read-out: L. amazonensis IC50 ± SD
Protocol: as §3, §4

[5] = system: L. guyanensis promastigotes; test: Antileishmanial in vitro promastigote assay; settings: Leishmania guyanensis, read-out: L. guyanensis IC50 ± SD
Protocol: as §3, §4

[6] = system: Leishmania promastigotes (L. donovani, L. infantum, L. guyanensis, L. amazonensis); test: Antipromastigote activity over the tested Leishmania spp.; settings: read-out: antipromastigote activity IC50 values (range over species)
Protocol: The parasites, culture procedure and the activity of functionalized abietane analogs on Leishmania promastigotes were performed according to the method previously reported by us [28], while the intracellular amastigote assay was performed on L. amazonensis and L. infantum according to the fluorometric test [29].

[7] = target: GABAA receptor subtype (α1β2γ2S) (Homo sapiens, UniProt P14867+P18507+P47870); test: Two-microelectrode voltage-clamp in Xenopus laevis oocytes; settings: for activation at 10 µM: read-out: IGABA Potentiation of 10 µM (%); for activation at 100 µM: read-out: IGABA Potentiation of 100 µM (%)
GABAA receptor subtype (α1β2γ2S), sequence (P14867 28-456): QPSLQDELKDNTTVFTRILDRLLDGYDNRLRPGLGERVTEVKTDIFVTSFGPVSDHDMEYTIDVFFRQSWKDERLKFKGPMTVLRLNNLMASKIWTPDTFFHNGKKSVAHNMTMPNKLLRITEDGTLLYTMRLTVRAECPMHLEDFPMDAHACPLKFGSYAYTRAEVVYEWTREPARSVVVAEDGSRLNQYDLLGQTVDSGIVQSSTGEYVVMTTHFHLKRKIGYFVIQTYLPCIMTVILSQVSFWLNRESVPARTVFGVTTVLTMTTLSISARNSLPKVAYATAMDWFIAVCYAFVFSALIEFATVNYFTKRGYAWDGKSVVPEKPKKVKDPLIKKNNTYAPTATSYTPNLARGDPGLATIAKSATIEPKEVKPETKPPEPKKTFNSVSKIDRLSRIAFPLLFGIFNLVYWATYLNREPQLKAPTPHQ
GABAA receptor subtype (α1β2γ2S), sequence (P47870 26-512): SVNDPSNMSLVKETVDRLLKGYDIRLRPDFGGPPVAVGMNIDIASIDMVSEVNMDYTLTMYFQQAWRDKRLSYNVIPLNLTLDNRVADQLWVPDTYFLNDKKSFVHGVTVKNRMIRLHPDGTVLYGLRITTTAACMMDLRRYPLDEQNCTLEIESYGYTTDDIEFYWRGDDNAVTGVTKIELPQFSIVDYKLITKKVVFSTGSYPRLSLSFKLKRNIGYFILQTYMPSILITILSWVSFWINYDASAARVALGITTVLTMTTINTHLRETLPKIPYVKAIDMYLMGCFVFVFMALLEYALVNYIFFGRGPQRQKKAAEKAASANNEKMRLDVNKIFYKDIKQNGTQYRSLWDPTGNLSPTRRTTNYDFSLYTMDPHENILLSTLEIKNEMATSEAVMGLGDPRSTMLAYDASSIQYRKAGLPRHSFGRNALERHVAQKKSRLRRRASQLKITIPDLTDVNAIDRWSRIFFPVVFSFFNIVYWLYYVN
GABAA receptor subtype (α1β2γ2S), sequence (P18507 40-467 isoform P18507-1 limits assumed): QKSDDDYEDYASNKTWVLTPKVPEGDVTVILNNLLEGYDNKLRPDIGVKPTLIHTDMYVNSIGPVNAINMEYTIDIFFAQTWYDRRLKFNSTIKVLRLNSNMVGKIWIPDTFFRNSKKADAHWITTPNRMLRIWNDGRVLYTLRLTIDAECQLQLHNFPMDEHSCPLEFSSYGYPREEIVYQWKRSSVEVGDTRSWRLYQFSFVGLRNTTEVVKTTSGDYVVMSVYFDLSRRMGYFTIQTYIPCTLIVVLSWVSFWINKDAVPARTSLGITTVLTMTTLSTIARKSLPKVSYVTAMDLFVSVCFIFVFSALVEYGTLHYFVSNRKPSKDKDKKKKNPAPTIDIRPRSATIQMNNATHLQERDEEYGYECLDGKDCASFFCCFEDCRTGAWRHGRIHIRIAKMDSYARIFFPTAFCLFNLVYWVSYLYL
Protocol: All molecules were tested at concentrations of 10, 100 μM and compared with dehydroabietic acid (DHA) (3) as a reference [16].

[8] = Cytotoxicity assay on J774 macrophages; settings: mouse, Macrophages J774 CC50, 50% reduction of cell viability
Protocol: as §3, §4

[9] = system: human solid tumor cell lines HBL-100, A549, HeLa, T-47D, SW1573, WiDr; test: Antiproliferative SRB assay, panel of six cell lines; format: cell-based; settings: over the six solid tumor cell lines, read-out: GI50 (range over the cell lines)
Protocol: as §2

A549 cell line = system: A549 cell line; design: method as in doi:10.1016/j.phytol.2013.04.003; settings: MTT method; cited from earlier work

Compound | IC50 (L. infantum amastigotes) [µM] | IC50 [1] [µM] | EC50 (P. falciparum 3D7 strain) [µM] | EC50 (P. falciparum K1 strain) [µM] | EC50 (BJ) [µM] | EC50 (HEK293) [µM] | EC50 (HepG2) [µM] | EC50 (RAJI) [µM] | GI50 (A549 (Lung)) [µM] | GI50 (SW1573 (Lung)) [µM] | GI50 (WiDr (Colon)) [µM] | GI50 (HBL-100 (Breast)) [µM] | GI50 (HeLa (Cervix)) [µM] | GI50 (T-47D (Breast)) [µM] | CC50 (in vitro) [µM] | IC50 [2] [µM] | IC50 [3] [µM] | IC50 [4] [µM] | IC50 [5] [µM] | activation at 10 µM [7] [%] | other results
CC(C)c1cc2c(cc1O)[C@@]1(C)CCC[C@](C)(C(=O)O)[C@@H]1CC2 [Compound 13, lambertic acid] | 19.2 ± 3.8 | 8.8 ± 1.6 | > 15 | > 15 | > 25 | > 25 | > 25 | > 25 | 17 ± 6.1 | 32 ± 8.9 | 59 ± 7.3 | 34 ± 4.2 | 29 ± 13 | 41 ± 8.4 | > 200 | 29.1 ± 1.5 | 12.8 ± 2.8 | 51.5 ± 3.2 | 17.8 ± 1.2 | 3 ± 3 | CC50 (Macrophages J774): 217 ± 34 µM; fold less cytotoxic than 12-hydroxydehydroabietic acid (Macrophages J774): 2.5 fold; IC50 [6]: 12.8 to 51.5 µM; activation at 100 µM [7]: 71 ± 23%
COC(=O)[C@@]1(C)CCC[C@]2(C)c3cc(C(C)=O)c(C(C)C)cc3CC[C@@H]12 [Compound 9] | 22.7 ± 5.9 | 30.3 ± 1.2 | 12.8 | 12.6 | > 25 | > 25 | > 25 | > 25 | 15 ± 7 | 25 ± 11 | 15 ± 2.1 | 14 ± 2.1 | 15 ± 4.1 | 14 ± 1 | – | 20.3 ± 4.6 | 8.9 ± 2 | 14.1 ± 1.4 | 18.7 ± 0.8 | – | CC50 [8]: > 200 µM
CC(C)c1cc2c(cc1O)[C@@]1(C)CCC[C@](C)(CO)[C@@H]1CC2 [Compound 14, 19-hydroxyferruginol] | – | – | > 15 | 11.6 | > 25 | > 25 | > 25 | > 25 | 1.8 ± 0.4 | 13 ± 1.3 | 13 ± 3.7 | 13 ± 1.6 | 3.1 ± 0.9 | 12 ± 1.8 | 51.9 ± 5.9 | – | – | – | – | 64 ± 13 | GI50 [9]: 1.8 to 13 µM; IC50 (A549 cell line): 14 µM; activation at 100 µM [7]: 507%
COC(=O)[C@@]1(C)CCC[C@]2(C)c3cc(O)c(C(C)C)cc3C(=O)C[C@@H]12 [Compound 16] | 16.5 ± 4.6 | 16.1 ± 2 | 4.8 | 3.9 | > 25 | > 25 | > 25 | > 25 | 11 ± 6.9 | > 100 | 6.1 ± 4.2 | 65 ± 4.9 | 18 ± 1.7 | 47 ± 25 | > 200 | 10.1 ± 1.4 | 11.8 ± 0.8 | 8.5 ± 0.3 | 5.6 ± 0.6 | 5 ± 4 | activation at 100 µM [7]: 104 ± 26%
COC(=O)[C@@]1(C)CCC[C@]2(C)c3cc(OC(C)=O)c(C(C)C)cc3CC[C@@H]12 [Compound 10] | – | – | > 15 | 3.1 | > 25 | > 25 | > 25 | > 25 | 6.5 ± 2.7 | 18 ± 3.4 | 4.5 ± 1.4 | 11 ± 2.3 | 7 ± 1.7 | 4.2 ± 1.5 | – | 3.6 ± 0.6 | 3.9 ± 0.1 | 7.4 ± 0.6 | – | – | CC50 [8]: 30.2 ± 2 µM
